In the NIST ThermoML archive (doi:10.1016/j.jct.2005.12.012):
Where “and” joins values, the source holds several entries; their conditions need not be identical. Identical values can stand only once.

Details: Crystal

[Cl][Fe]([Cl])[Cl] [ferric chloride]
Details	vapor or sublimation pressure
383.9 K	2.16e-05 kPa
386.3 K	1.586e-05 kPa and 2.159e-05 kPa
389.3 K	4.466e-05 kPa
389.6 K	3.81e-05 kPa
389.7 K	3.88e-05 kPa
390.4 K	3.533e-05 kPa
392 K	3.693e-05 kPa
392.7 K	6.293e-05 kPa
393.8 K	8.506e-05 kPa
394.2 K	6.506e-05 kPa
394.8 K	9.106e-05 kPa
394.9 K	4.68e-05 kPa and 7.493e-05 kPa
395.1 K	5.706e-05 kPa
395.4 K	7.039e-05 kPa
396.6 K	7.053e-05 kPa
398 K	6.426e-05 kPa
398.6 K	0.0001123 kPa
398.9 K	0.0001423 kPa
399 K	0.0001348 kPa and 0.0001191 kPa
401.2 K	0.0001035 kPa
403 K	0.0001712 kPa and 0.0001621 kPa and 0.0001703 kPa
403.2 K	0.0002573 kPa
403.3 K	0.0001812 kPa
404.5 K	0.0002585 kPa
404.6 K	0.000249 kPa
407.7 K	0.0003298 kPa
408.6 K	0.000386 kPa and 0.0003425 kPa
409.1 K	0.000328 kPa
409.3 K	0.0003058 kPa
409.8 K	0.0004945 kPa
409.9 K	0.0003822 kPa
412.7 K	0.0003274 kPa
413.5 K	0.0004797 kPa
413.9 K	0.0005921 kPa and 0.0007087 kPa
414.1 K	0.0005326 kPa
414.6 K	0.0007097 kPa
416.4 K	0.0004961 kPa and 0.0004838 kPa
418.4 K	0.001063 kPa
419.3 K	0.0007021 kPa and 0.001331 kPa
419.4 K	0.0008229 kPa
419.8 K	0.0006339 kPa
419.9 K	0.0009366 kPa
421.9 K	0.0009899 kPa
422.2 K	0.001008 kPa
423.6 K	0.001647 kPa
424 K	0.00111 kPa
424.2 K	0.001053 kPa
424.8 K	0.001549 kPa
424.9 K	0.001033 kPa
425.6 K	0.001455 kPa
426.4 K	0.001488 kPa
426.8 K	0.001202 kPa
428.8 K	0.001767 kPa and 0.001985 kPa
429.2 K	0.002648 kPa
430.9 K	0.002751 kPa
431.6 K	0.001895 kPa
434 K	0.003812 kPa
434.4 K	0.003132 kPa
434.5 K	0.004177 kPa
439.7 K	0.006419 kPa
445.2 K	0.008538 kPa
